Results on six molecules are retold here after ChEMBL document CHEMBL6134927, “Novel Pyrido[3,4-d]pyrimidin-4-one and Pyrimido[5,4-d]pyrimidin-4-one Derivatives as TREM2 Agonists for Treating Parkinson's Disease” (ACS Med Chem Lett, 2025).

pEC50: −log10 of the molar value.

In this assay the target is T1, Triggering receptor expressed on myeloid cells 2 (Homo sapiens, UniProt Q9NZC2).
T1 sequence (Q9NZC2 whole entry): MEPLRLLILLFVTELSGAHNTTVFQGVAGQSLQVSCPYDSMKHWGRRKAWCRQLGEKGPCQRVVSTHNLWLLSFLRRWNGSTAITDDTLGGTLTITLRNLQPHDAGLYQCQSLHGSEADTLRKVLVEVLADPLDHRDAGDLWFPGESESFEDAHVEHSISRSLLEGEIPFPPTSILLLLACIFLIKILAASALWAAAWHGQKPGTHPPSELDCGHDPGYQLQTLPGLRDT
Briefly: Agonist activity at human TREM2 expressed in HEK cells co-expressing human DAP12 assessed as increase in Syk phosphorylation incubated for 30 mins by AlphaLISA assay. It is filed as cell-based.
Consider `C[C@H]1CN(c2nc(-c3ccc(Cl)cc3F)c3nc(C(F)(F)F)n(C)c(=O)c3n2)C[C@@H](c2cnn(C3CC3)c2)O1`, for which the pEC50 (in general, −log10 of the EC50, conventionally taken in molar units) was 8.70.

On to `Cc1cc([C@@H]2CN(c3nc(-c4ccc(Cl)cc4F)c4nc(C(F)F)n(C)c(=O)c4n3)CCO2)ccn1`, for which the negative logarithm of the EC50 (pEC50) is 9.00.

As to `COc1cc([C@H]2CN(c3nc(-c4ccc(Cl)cc4F)c4nc(C(F)(F)F)n(C)c(=O)c4n3)CCO2)ccn1`, the pEC50 was 8.40.

As to `Cc1cc(C2CN(c3nc(-c4ccc(Cl)cc4F)c4nc(C(F)F)n(C)c(=O)c4n3)CCO2)ccn1` (stereo unspecified), the negative logarithm of the EC50 (pEC50) was 8.70.

For the molecule `Cn1cc([C@H]2CN(c3nc(-c4ccc(Cl)cc4F)c4nc(C(F)F)n(C)c(=O)c4n3)CCO2)cn1`, the pEC50 was 8.30.

As for `Cc1cc([C@@H]2CN(c3cc4c(=O)n(C)c(C(F)F)nc4c(-c4ccc(Cl)cc4F)n3)CCO2)ccn1`, the pEC50 is 8.52.
